From US5496853A, “Benzoxa condensed ring compounds, process for producing the same and pharmaceutical composition comprising the same” (Teijin Limited, priority 1990, dated 1996)
Structures can show the parent of a compound that is named as a salt.

Key:
ACAT = molecular target: T1, ACAT (Oryctolagus cuniculus, UniProt G1SFD9); experiment: ACAT enzyme inhibitory activity of rabbit intestinal mucosa; assay type: biochemical; details: rabbit intestinal mucosa microsome, [1-14C] oleoyl CoA, 37° C., pH 7.4
T1 construct: from tissue; host or cells: domestic rabbit intestinal mucosa, microsome fraction (105,000×g precipitate)
T1 sequence (G1SFD9 1-524): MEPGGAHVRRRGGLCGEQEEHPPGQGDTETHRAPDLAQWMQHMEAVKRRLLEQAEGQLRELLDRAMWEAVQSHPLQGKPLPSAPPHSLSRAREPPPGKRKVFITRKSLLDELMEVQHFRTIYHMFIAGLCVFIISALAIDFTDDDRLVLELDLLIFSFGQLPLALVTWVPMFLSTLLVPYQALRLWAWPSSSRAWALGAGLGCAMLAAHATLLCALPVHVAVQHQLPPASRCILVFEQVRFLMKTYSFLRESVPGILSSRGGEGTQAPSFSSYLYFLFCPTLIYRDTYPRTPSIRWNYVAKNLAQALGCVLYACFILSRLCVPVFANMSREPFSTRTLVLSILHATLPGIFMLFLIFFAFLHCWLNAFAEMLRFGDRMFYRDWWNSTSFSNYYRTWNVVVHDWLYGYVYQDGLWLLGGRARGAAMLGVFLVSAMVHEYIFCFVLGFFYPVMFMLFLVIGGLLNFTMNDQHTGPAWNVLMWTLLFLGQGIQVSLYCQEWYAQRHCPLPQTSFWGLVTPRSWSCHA
Protocol: Measurement of ACAT enzyme inhibitory activity (measurement of ACAT enzyme inhibitory activity of rabbit intestinal mucosa)
Preparation of a domestic rabbit intestinal mucosa microsome and measurement of the ACAT enzyme activity were conducted by slightly modifying a method established by Salone and Field (see Biochemica et Biophysica, vol. 712, 557 (1982).
The supernatant was further centrifuged at 105,000×g and a temperature of 4° C. for one hour to provide a precipitate. The precipitate was resuspended in the buffer A to provide a microsome fraction.
A 1 %v/v dimethylsulfoxide solution of each specimen compound in a predetermined concentration was added to the buffer A containing 43 μM serum albumin and 0.5 mg/ml microsome fraction, and the mixture was heated at 37° C. for 5 min.
Then, 43 μM oleoyl CoA containing [1^-14 C] oleoyl CoA (3.7 kB) was added thereto, the mixture was heated at 37° C. for 10 rain, and chloroform/methanol (2/1) containing 10 mg/ml cholesteryl oleate was added thereto to terminate the reaction.
0.111 kB of [^3 H] cholesteryl oleate and 1N hydrochloric acid were added thereto, and the mixture was stirred. The cholesteryl oleate extracted into the chloroform layer was isolated by thin-layer chromatography, and the radioactivity was measured as the ACAT activity.

serum cholesterol = experiment: percentage change of serum cholesterol in cholesterol-fed rats; assay type: in vivo, Male Wistar rats; details: Rattus norvegicus, 72 h, once a day for three days, cholesterol-enriched feed, vs control; for change in vivo at 1 mg/kg: 1 mg/kg oral; for change in vivo at 10 mg/kg: 10 mg/kg oral
Description: Measurement of percentage change of serum cholesterol
Male Wistar rats having a weight of 200 g were preliminarily bred for 7 days while they freely ingested a normal feed (CE-2 manufactured by CLEA Japan Inc.).
Thereafter, they were bred for 3 days while they freely ingested a feed enriched with cholesterol and fat (2% cholesterol, 1% cholic acid, 20% casein, 45% fine granulated sugar, 12% coconut oil, 4% KC flock, 1% mixed vitamin, 7% mixed mineral and 8% dried fish powder; a product of CLEA Japan Inc.). During the cholesterol loading period, the test compound of the present invention was orally administered to the above test animals at a dose of 0.1 to 10 mg per kg of the weight once a day for three days. On the other hand, the excipient alone was administered to the control animals.
After 8 hrs from the last administration, the test animals were fasted. 16 hr after the initiation of the fasting, these test animals were slaughtered. The serum cholesterol level was measured for each animal.
The results were compared with those of the control and are given as percentage serum cholesterol (%) in Table 3.
Percentage change of serum cholesterol (%)={(A-B)/B}×100
wherein A represents the total cholesterol level of serum in the group of rats to which the test compound was administered; and B represents the total cholesterol level of serum in the control group of rats.

Row | Compound | IC50 (ACAT) | change in vivo at 1 mg/kg (serum cholesterol) | change in vivo at 10 mg/kg (serum cholesterol)
1 | CCCCCCCCCCNc1ccc(C(=O)Nc2c(C)cc(C)c3c2OC(C)(C)C3)cc1 [Ex. 33] | 110 nM |  | 
2 | CCCCCCCCCCC(C)(C)C(=O)Nc1c(C)c(N(C)C)c(C)c2c1OC(C)(C)C2 [Ex. 8, N-(5-dimethylamino-2,2,4,6-tetramethyl-2,3-dihydrobenzofuran-7-yl)-2,2-dimethyldodecaneamide] |  | -71% | 
3 | Cc1cc(C)c(NC(=O)C(C)(C)CCCCCCOCC(C)C)c2c1CC(C)(C)O2 [Ex. 49] |  | -50% | 
4 | CCCCCCCCCCC1(C(=O)Nc2cccc3nc(-c4ccccc4)oc23)CCCC1 [Ex. 18] | 500 nM |  | 
5 | Cc1cc(C)c(NC(=O)C(C)(C)CCCCCCOc2ccc(Cl)cc2)c2c1CC(C)(C)O2 [Ex. 68] |  | -75% | 
6 | Cc1ccc2c(c1NC(=O)NCC1(c3ccccc3)CCCC1)OC(C)(C)C2 [Ex. 3] | 340 nM |  | 
7 | CCCCCCCCCCC(C)(C)C(=O)Nc1c(C)cc(C)c2c1OC(C)(C)C2 [Ex. 5, N-(2,2,4,6-tetramethyl-2,3-dihydrobenzofuran-7-yl)-2,2-dimethyldodecaneamide] |  | -61% | 
8 | Cc1cc(C)c(NC(=O)C(C)(C)CCCCCOc2ccc(Cl)cc2)c2c1CC(C)(C)O2 [Ex. 61] |  | -64% | 
9 | Cc1cc(C)c(NC(=O)C(C)(C)CCCCCCBr)c2c1CC(C)(C)O2 [Ex. 38] | 180 nM |  | 
10 | Cc1cc2nc(-c3ccccc3)oc2c(NC(=O)NCC2(c3ccccc3)CCCC2)c1C [Ex. 13] | 400 nM |  | 
11 | CCCCCCOc1ccc(CCCC(C)(C)C(=O)Nc2c(C)cc(C)c3c2OC(C)(C)C3)cc1 [Ex. 46] | 34 nM |  | 
12 | CCCCCCCCCCC1(C(=O)Nc2c(C)c(C)cc3nc(-c4ccccc4)oc23)CCCC1 [Ex. 20] |  |  | -46%
13 | Cc1cc(C)c(NC(=O)C(C)(C)CCCCCOc2ccc([N+](=O)[O-])cc2)c2c1CC(C)(C)O2 [Ex. 10, N-(2,2,4,6-tetramethyl-2,3-dihydrobenzofuran-7-yl)-[2,2-dimethyl-7-(4-nitrophenyloxy)]heptaneamide] | 230 nM |  | 
14 | CCCCCCCCCCC(C)(C)C(=O)Nc1c(C)c([N+](=O)[O-])c(C)c2c1OC(C)(C)C2 [Ex. 6, N-(2,2,4,6-tetramethyl-5-nitro-2,3-dihydrobenzofuran-7-yl)-2,2-dimethyldodecaneamide] | 19 nM |  | 
15 | CCCCCCCCC(C)(C)C(=O)Nc1c(C)cc(C)c2c1OC(C)(C)C2 [Ex. 39] | 72 nM |  | 
16 | CCCCCCCCCCCCNC(=O)Nc1c(C)ccc2c1OC(C)(C)C2 [Ex. 23] | 220 nM |  | 
17 | CCCOCCCCCCOc1ccc(C(=O)Nc2c(C)cc(C)c3c2OC(C)(C)C3)cc1 [Ex. 29] |  | -23% | 
18 | CCCCCCCCCCC1(C(=O)Nc2cccc3nc(-c4cccnc4)oc23)CCCC1 [Ex. 2, N-[2-(3-pyridyl)benzoxazol-7-yl]-1-decylcyclopentanecarboxamide] | 830 nM |  | 
19 | Cc1cc(C)c(NC(=O)C(C)(C)CCCCOc2ccc(Cl)cc2)c2c1CC(C)(C)O2 [Ex. 59] |  | -43% | 
20 | Cc1cc(C)c(NC(=O)C(C)(C)CCCCCc2ccccc2)c2c1CC(C)(C)O2 [Ex. 42] |  | -44% | 
21 | Cc1cc(C)c(NC(=O)C(C)(C)CCCc2ccc(CC(C)C)cc2)c2c1CC(C)(C)O2 [Ex. 45] | 28 nM | -58% | 
22 | CCCc1ccc(CCCC(C)(C)C(=O)Nc2c(C)cc(C)c3c2OC(C)(C)C3)cc1 [Ex. 44] | 66 nM |  | 
23 | Cc1ccc2c(c1NC(=O)C(C)(C)CCCCOc1ccc(C(C)(C)C)cc1)OC(C)(C)C2 [Ex. 37] | 340 nM |  | 
24 | Cc1cc(C)c(NC(=O)C(C)(C)CCCCOCc2ccccc2)c2c1CC(C)(C)O2 [Ex. 53] |  |  | -50%
25 | CCCCCCCCCCC1(C(=O)Nc2c(C)ccc3c2OC(C)(C)C3)CCCC1 [Ex. 36] |  |  | -52%

Second part, led by results:

Row | IC50 (ACAT) | Compound | change in vivo at 1 mg/kg (serum cholesterol) | change in vivo at 10 mg/kg (serum cholesterol)
26 | 220 nM | Cc1cc(C)c(NC(=O)C(C)(C)CCCCCOc2ccc(Cl)cc2Cl)c2c1CC(C)(C)O2 [Ex. 63] |  | 
27 | 130 nM | Cc1cc(C)c(NC(=O)C(C)(C)CCCCCCOc2ccc(N(C)C)cc2)c2c1CC(C)(C)O2 [Ex. 71] | -49% | 
28 | 350 nM | Cc1cc(C)c(NC(=O)C(C)(C)CCCCCCN2CCN(Cc3ccccc3)CC2)c2c1CC(C)(C)O2 [Ex. 79] |  | 
29 | 170 nM | Cc1cc(C)c(NC(=O)C(C)(C)CCCCCOCCOC(C)C)c2c1CC(C)(C)O2 [Ex. 55] |  | 
30 | 910 nM | Cc1ccc(OCCCCCC(C)(C)C(=O)Nc2c(C)cc(C)c3c2OC(C)(C)C3)c(C)c1 [Ex. 64] |  | 
31 | 330 nM | Cc1cc(C)c(NC(=O)C(C)(C)CCCCCCN(C)Cc2ccccc2)c2c1CC(C)(C)O2 [Ex. 74 (HCl salt)] |  | 
32 | 190 nM | Cc1cc(C)c(NC(=O)C(C)(C)CCCCCOc2ccc(N(C)C)cc2)c2c1CC(C)(C)O2 [Ex. 67] |  | 
33 | 72 nM | CCCCCCCCCCCCCCCC(=O)Nc1c(C)c(Cl)c(C)c2c1OC(C)(C)C2 [Ex. 83] |  | 
34 | 340 nM | Cc1cc(C)c(NC(=O)C(C)(C)CCCCCCNCc2ccc(Cl)cc2)c2c1CC(C)(C)O2 [Ex. 73 (HCl salt)] |  | 
35 | 460 nM | Cc1cc(C)c(NC(=O)C(C)(C)CCCCCOc2ccc(N)cc2)c2c1CC(C)(C)O2 [Ex. 66] |  | 
36 | 190 nM | Cc1cc(C)c(NC(=O)C(C)(C)CCCCOCCCC(C)C)c2c1CC(C)(C)O2 [Ex. 47] |  | 
37 | 57 nM | Cc1cc(C)c(NC(=O)C(C)(C)CCCCCCOCCCC(C)C)c2c1CC(C)(C)O2 [Ex. 48] |  | 
38 | 100 nM | Cc1cc(C)c(NC(=O)C(C)(C)CCCCCOCCc2ccccc2)c2c1CC(C)(C)O2 [Ex. 54] |  | 
39 | 40 nM | CCCCCCCCCCOc1ccc(C(=O)C(C)(C)C(=O)Nc2c(C)cc(C)c3c2OC(C)(C)C3)cc1 [Ex. 80] |  | 
40 | 120 nM | Cc1cc(C)c(NC(=O)C(C)(C)CCCCCCN(C)Cc2ccc(Cl)cc2)c2c1CC(C)(C)O2 [Ex. 75] |  | 
41 | 330 nM | Cc1cc(C)c(NC(=O)C(C)(C)CCCCN2CCN(Cc3ccccc3)CC2)c2c1CC(C)(C)O2 [Ex. 78] |  | -43%
42 | 110 nM | CCCCCCCCCCOc1ccc(C(=O)CC(=O)Nc2c(C)cc(C)c3c2OC(C)(C)C3)cc1 [Ex. 88, N-(2,2,4,6-tetramethyl-2,3-dihydrobenzofuran-7-yl)3-(4-decyloxyphenyl)-3-oxpropaneamide] |  | 
43 | 330 nM | COCCCCCCC(C)(C)C(=O)Nc1c(C)cc(C)c2c1OC(C)(C)C2 [Ex. 56] |  | 
44 | 45 nM | Cc1cc(C)c(NC(=O)C(C)(C)CCCCCCOCC(C)(C)C)c2c1CC(C)(C)O2 [Ex. 50] |  | -54%
45 | 86 nM | Cc1cc(C)c(NC(=O)C(C)(C)CCCCCOc2ccc(C(C)C)cc2)c2c1CC(C)(C)O2 [Ex. 65] |  | 
46 | 260 nM | CCCCCCCCCCCCCCCC(=O)Nc1c(C)cc(C)c2c1OC(C)(C)C2 [Ex. 81] |  | 
47 | 110 nM | Cc1cc(C)c(NC(=O)C(C)(C)CCCCCCOc2ccc(F)cc2)c2c1CC(C)(C)O2 [Ex. 70] |  | 
48 | 64 nM | Cc1ccc(OCCCCCC(C)(C)C(=O)Nc2c(C)cc(C)c3c2OC(C)(C)C3)cc1 [Ex. 62] | -18% | 
49 | 170 nM | Cc1cc(C)c(NC(=O)C(C)(C)CCCCOc2ccc(C(C)(C)C)cc2)c2c1CC(C)(C)O2 [Ex. 58] |  | -27%
